Results taken from patent publication US6844182B2, “Mutants which produce a potentiator of bacillus pesticidal activity” (priority 1992, dated 2005).
Where two headings read alike, the source gives them in different places.

What was measured:
Solubility of Ia = assay type: physicochemical
Description: The active compound is found to be water soluble but is not soluble in organic solvents. […] A DEPT experiment determined that there are three quaternary carbons (C), seven methines (CH), three methylenes (CH2) and no methyl groups (CH3). Using proton coupling experiments such as 1-D decoupling and COSY, one large spin system containing eight carbons is identified. In addition, a smaller spin system consisting of two carbons is present. A carbon proton correlation experiment (HMBC) enabled assignment of each proton resonance in the molecule to its attached carbon.

Septoria nodorum = assay: Fungal growth inhibition assay, Septoria nodorum; assay type: cell-based
Description: (§1) Mutants of the Bacillus thuringiensis subsp. kurstaki strain which produce the factor are identified using fungal agar plates of Septoria nodorum and Alternaria alternata.
(§2) The two fungi are grown on PDA (potato dextrose agar) plates at 26° C. for 10-14 days until sufficient sporulation is obtained. Alternaria alternata is incubated in alternating UV light and darkness (12 hrs. each). The spores are removed from the plates and suspended in sterile water. Septoria nodorum spores are filtered through a sterile G1 filter. The Alternaria alternata spore concentration is adjusted to approximately 2×10^5 per ml and the Septoria nodorum spore concentration is adjusted to approximately 2×10^6 per ml using a Burker-Turk or Fuchs-Rosenthal counter. Samples of 1.5 ml of the spore suspension are then mixed with 1.5 ml of sterile 40% glycerol in water, frozen for 1 day at −20° C. and thereafter stored at −80° C. until use.
(§3) Test plates for the factor are prepared by mixing at 46° C. a 1.5 ml spore sample (as described above) with 115 ml of antibiotic agar medium No. 2 (25.5 g per liter) comprising streptomycin at a final concentration of 100 μg per ml, and transferring the mixture to sterile plastic trays (Nunc No. 101875). After the agar has solidified, […] holes are punched into the agar (120 holes per tray).
(§4) Samples of a culture are serially diluted in 100 μg of streptomycn per ml of sterile water and 10 μl of the diluted samples are dispensed into the trays prepared as described above. The trays are incubated at 26° C. for 2 days. Dilutions of the factor are also run as a positive control.
(§5) The sensitivity of the fungal growth inhibition assay is in the range of 0.05 gram of the factor per liter (barely visible) and 0.1 gram of the factor per liter (clear zone) for both fungi.

[1] = Stability of Ia (retention of activity); assay type: physicochemical
Description: Further, it is stable when subjected to direct sunlight for at least 10 hours. Ia is stable at a pH 2 for 3 days, but unstable at pH 12.

Spodoptera exigua = assay type: in vivo; parameters: key to Stunt Score: 4.0 = untreated control; 3.0 = 75% size of untreated control; 2.0 = 50% size of untreated control; 1.0 = 25% size of untreated control; 0.0 = no growth or size unchanged from start of experiment
Description: Activity is monitored by a Spodoptera exigua micro-bioassay, and purity is determined by capillary electrophoresis. […] The trays containing the various samples are air dried. Two to four 2nd or early 3rd instar Spodoptera exigua are added to the wells containing the dried sample. The wells are sealed with mylar poked with holes and are incubated for 2-3 days at 30° C. Degree of stunting and percent mortality are then recorded. Typically, 5 replicate wells are run for each sample.

Alternaria alternata = assay: Fungal growth inhibition assay, Alternaria alternata; assay type: cell-based
Description: as §1, §2, §3, §4, §5

Phytophthora medicaginis = conditions: U.S. Pat. Nos. 4,877,738 and 4,878,936; cited from earlier work

With NC(=O)NCC(NC(=O)C(O)C(O)C(N)C(O)CC(O)C(N)CO)C(N)=O (stereo not shown) [Ia] the “solubility in organic solvents” value (Solubility of Ia; organic solvents) was “not soluble”, the solubility in water (Solubility of Ia; water) was “water soluble” and the “effect on fungal growth” value (Septoria nodorum; agar plates) was “inhibits growth”. The “concentration giving barely visible inhibition (assay sensitivity)” value (Septoria nodorum; barely visible, 26° C., 2 days) was 0.05 gram of the factor per liter, the “concentration giving clear zone (assay sensitivity)” value (Septoria nodorum; clear zone, 26° C., 2 days) was 0.1 gram of the factor per liter and the stability upon autoclaving ([1]; autoclaving (>190° C.)) was “loses all activity”. For the same compound, the stability upon boiling ([1]; boiling for 5 minutes) was “stable”, the “time stable in direct sunlight” value ([1]; direct sunlight) was “at least 10 hours” and the “stability to periodic acid or concentrated HCl” value ([1]; exposed to periodic acid or concentrated HCl) was “lose all activity”. For the same compound, the “stability at pH 2” value ([1]; pH 2 for 3 days) was “stable”, the “stability at pH 12” value ([1]; pH 12) was “unstable” and the “Stunt Score” value (Spodoptera exigua; Ia + alone, Bt protein None) was 4.0. The “effect on activity of B.t. subsp. kurstaki and aizawai crystal delta-endotoxin pesticidal proteins toward Spodoptera exigua” value (Spodoptera exigua; regardless of the form of the pesticidal proteins) was “potentiate”, the “effect on fungal growth” value (Alternaria alternata; agar plates) was “inhibits growth” and the “concentration giving barely visible inhibition (assay sensitivity)” value (Alternaria alternata; barely visible, 26° C., 2 days) was 0.05 gram of the factor per liter. For the same compound, the “concentration giving clear zone (assay sensitivity)” value (Alternaria alternata; clear zone, 26° C., 2 days) was 0.1 gram of the factor per liter.
In the case of NC(=O)NCC(NC(=O)C(O)C(O)C(N)C(O)CC(O)C(N)CO)C(N)=O (stereo not shown) [zwittermicin A], the “effect on growth of the plant pathogen Phytophthora medicaginis” value (Phytophthora medicaginis) is given as “inhibits the growth” and the “effect on infection of alfalfa” value (Phytophthora medicaginis) is given as “reduces the infection”.
For “CryIA(c): Bacillus thuringiensis CryIA(c) delta-endotoxin protein purified from BIOBIT FC”, the “Stunt Score” value (Spodoptera exigua; Bt protein 3 μg/ml, Ia +) was 1.0 (1.0 = 25% size of untreated control), the “Stunt Score” value (Spodoptera exigua; Bt protein 15 μg/ml, Ia +) was 0.0 and the “Stunt Score” value (Spodoptera exigua; Bt protein 30 μg/ml, Ia −) was 4.0. For the same compound, the “concentration with Ia producing the same insect mortality/stunt score as protein alone” value (Spodoptera exigua; full-length protein, equals 240 μg/ml of CryIA(c) alone) was 0.75 µg/mL, the “Stunt Score” value (Spodoptera exigua; purified truncated Bt protein OD280 0.0006, Ia +) was 1.0 (1.0 = 25% size of untreated control) and the “Stunt Score” value (Spodoptera exigua; purified truncated Bt protein OD280 0.0012, Ia +) was 1.0 (1.0 = 25% size of untreated control). For the same compound, the “Stunt Score” value (Spodoptera exigua; purified truncated Bt protein OD280 0.0025, Ia +) was 2.0 (2.0 = 50% size of untreated control), the “Stunt Score” value (Spodoptera exigua; purified truncated Bt protein OD280 0.005, Ia +) was 0.0 and the “Stunt Score” value (Spodoptera exigua; purified truncated Bt protein OD280 0.020, Ia +) was 0.0. For the same compound, the “OD280 in combination with Ia giving the same stunt score as protein alone” value (Spodoptera exigua; truncated protein, equals OD280 of 0.075 tested alone) was 0.0006 OD280.
